molecular target: T1, recombinant full length LRRK2 over-expressed in SH-SY5Y cells (Homo sapiens, UniProt Q5S007); experiment: Recombinant cellular LRRK2 AlphaScreen assay (LRRK2 Ser935 phosphorylation); format: cell-based; settings: SH-SY5Y cells with BacMam LRRK2, 60 minutes compound incubation, read-out: recombinant cellcular LRRK2 alphaScreen assay (pIC50) (converted)
T1 construct: A BacMam virus expressing full length recombinant LRRK2 was purchased from Invitrogen; host or cells: SH-SY5Y human neuroblastoma cells transduced with BacMam LRRK2 virus
T1 sequence (Q5S007 whole entry): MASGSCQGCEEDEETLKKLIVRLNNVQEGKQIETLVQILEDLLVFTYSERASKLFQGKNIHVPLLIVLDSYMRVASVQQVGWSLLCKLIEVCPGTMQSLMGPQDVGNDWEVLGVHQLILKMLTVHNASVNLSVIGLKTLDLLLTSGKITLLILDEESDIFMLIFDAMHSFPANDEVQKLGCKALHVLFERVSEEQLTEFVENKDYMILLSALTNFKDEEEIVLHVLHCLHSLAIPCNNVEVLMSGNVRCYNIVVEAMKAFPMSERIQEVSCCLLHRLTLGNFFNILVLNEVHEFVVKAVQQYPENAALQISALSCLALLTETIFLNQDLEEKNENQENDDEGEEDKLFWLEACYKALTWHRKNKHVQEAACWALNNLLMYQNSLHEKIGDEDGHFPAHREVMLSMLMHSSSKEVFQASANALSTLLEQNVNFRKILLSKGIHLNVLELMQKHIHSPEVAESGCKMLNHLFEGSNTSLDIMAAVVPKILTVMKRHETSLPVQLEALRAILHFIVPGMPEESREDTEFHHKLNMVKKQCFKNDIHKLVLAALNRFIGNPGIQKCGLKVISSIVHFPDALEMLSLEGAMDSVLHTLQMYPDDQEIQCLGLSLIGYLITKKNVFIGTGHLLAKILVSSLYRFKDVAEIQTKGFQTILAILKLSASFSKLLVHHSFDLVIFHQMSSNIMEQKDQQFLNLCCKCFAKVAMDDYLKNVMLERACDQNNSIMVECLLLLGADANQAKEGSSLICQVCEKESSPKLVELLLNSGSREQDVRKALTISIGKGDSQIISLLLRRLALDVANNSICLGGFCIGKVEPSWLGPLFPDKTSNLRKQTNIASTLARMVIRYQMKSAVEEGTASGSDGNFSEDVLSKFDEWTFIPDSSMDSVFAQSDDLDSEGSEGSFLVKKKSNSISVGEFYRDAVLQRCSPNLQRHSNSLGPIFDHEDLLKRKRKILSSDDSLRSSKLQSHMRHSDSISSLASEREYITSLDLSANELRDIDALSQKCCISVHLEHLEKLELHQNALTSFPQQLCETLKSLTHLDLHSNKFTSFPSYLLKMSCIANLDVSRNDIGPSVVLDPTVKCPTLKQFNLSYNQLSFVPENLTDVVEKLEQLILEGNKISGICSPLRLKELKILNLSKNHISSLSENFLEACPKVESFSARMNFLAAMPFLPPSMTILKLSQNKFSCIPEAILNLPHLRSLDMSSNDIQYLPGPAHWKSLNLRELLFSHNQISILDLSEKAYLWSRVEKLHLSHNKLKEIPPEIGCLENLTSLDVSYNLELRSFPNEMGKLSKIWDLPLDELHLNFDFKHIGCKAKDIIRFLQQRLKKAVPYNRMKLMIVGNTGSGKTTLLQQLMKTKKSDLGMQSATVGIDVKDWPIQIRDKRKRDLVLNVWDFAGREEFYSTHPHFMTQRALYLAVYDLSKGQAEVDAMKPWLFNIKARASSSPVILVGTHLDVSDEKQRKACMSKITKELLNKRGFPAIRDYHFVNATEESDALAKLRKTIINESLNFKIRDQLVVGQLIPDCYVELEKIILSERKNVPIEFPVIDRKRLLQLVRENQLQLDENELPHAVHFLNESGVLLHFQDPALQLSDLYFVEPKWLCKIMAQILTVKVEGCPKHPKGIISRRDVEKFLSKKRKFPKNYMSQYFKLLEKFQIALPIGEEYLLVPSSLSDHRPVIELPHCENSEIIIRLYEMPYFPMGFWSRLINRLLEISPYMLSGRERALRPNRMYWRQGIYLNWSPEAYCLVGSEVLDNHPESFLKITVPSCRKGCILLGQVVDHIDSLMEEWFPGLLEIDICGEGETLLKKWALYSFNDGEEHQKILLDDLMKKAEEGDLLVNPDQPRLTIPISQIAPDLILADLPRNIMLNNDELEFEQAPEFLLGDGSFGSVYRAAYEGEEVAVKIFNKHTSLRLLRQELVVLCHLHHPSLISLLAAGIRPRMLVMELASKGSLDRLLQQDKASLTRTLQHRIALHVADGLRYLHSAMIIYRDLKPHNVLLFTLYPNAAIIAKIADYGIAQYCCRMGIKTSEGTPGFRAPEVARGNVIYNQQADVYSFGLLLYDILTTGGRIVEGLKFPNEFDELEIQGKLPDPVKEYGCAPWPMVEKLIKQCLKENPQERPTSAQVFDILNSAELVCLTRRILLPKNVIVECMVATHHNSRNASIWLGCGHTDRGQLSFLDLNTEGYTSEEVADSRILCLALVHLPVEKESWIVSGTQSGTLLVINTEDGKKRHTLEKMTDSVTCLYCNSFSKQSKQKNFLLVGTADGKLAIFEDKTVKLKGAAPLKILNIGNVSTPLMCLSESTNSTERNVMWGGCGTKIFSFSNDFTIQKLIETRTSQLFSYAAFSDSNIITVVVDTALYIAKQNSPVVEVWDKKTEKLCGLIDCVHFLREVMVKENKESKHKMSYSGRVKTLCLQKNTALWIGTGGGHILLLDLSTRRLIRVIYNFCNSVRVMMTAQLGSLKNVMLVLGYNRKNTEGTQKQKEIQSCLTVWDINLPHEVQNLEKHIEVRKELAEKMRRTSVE
Method: Recombinant Cellular LRRK2 AlphaScreen Assay
A BacMam virus expressing full length recombinant LRRK2 was purchased from Invitrogen and amplified by inoculation of SF-9 cells at MOI 0.3 for 4-5 days in Sf-900 III SFM medium supplemented with 3% fetal bovine serum. Infected cell cultures were then centrifuged at 2000 g for 20 minutes, viral supernatant titer determined by anti-gp64 plaque assay and stored at 4° C.
Affinity-purified anti-phospho LRRK2 Ser935 sheep polyclonal antibody (Dzamko et al., 2010, Biochem. J. 430: 405-413) was biotinylated by standard methods (PerkinElmer). Anti-LRRK2 rabbit polyclonal antibody was purchased from Novus Biologicals. AlphaScreen Protein A IgG Kit (including acceptor and donor beads) was purchased from Perkin Elmer.
SH-SY5Y cells were grown in DMEM/F12 medium with 10% dialysed fetal bovine serum and harvested by treatment with 0.5% trypsin-EDTA for 5 minutes at […] followed by centrifugation at 1000 rpm for 4 minutes. The cell pellet was resuspended in Opti-MEM reduced serum media (Invitrogen) at 200,000 cells/ml and mixed with the BacMam LRRK2 virus at MOI=50. 50 μl cell solutions were then dispensed to each well of a 384-well plate and incubated at 37° C., 5% CO2 for 24 hours.
Serial dilutions of test compounds were prepared in Opti-MEM reduced serum media (Invitrogen) and 5.6 ul transferred from compound plate to cell assay plate to achieve a top final assay concentration of 10 uM. DMSO was used in certain wells as controls. Cells were incubated at 37° C., 5% CO2 for 60 minutes. The medium was then removed and cells lysed by addition of 20 ul cell lysis buffer (Cell Signaling Technology) and incubation at 4° C. for 20 minutes. 10 ul of antibody/acceptor bead mix [(1/1000 biotinylated-pS935 LRRK2 antibody, 1/1000 total-LRRK2 antibody, 1/100 Acceptor beads in AlphaScreen detection buffer (25 mM Hepes (pH 7.4), 0.5% Triton X-100, 1 mg/ml Dextran 500 and 0.1% BSA)] was then added to each well and plates incubated for 2 hours at ambient temperature in the dark. 10 μl of donor beads solution (1/33.3 donor beads in AlphaScreen detection buffer) was then added to each well. Following incubation for a further 2 hours at ambient temperature in the dark, plates were read on an EnVision™ plate reader at emission 520-620 nm with excitation 680 nm. Dose response curve data was based on sigmoidal dose-response model.

| Structure (SMILES) | IC50 [nM] |
| --- | --- |
| CCOc1nc(Nc2ccc(C(=O)N3CCN(C)CC3)cc2)nc2[nH]ccc12 [Example E15, (4-((4-ethoxy-7H-pyrrolo-[2,3-d]-pyrimidin-2-yl)amino)phenyl)(4-methylpiperazin-1-yl)methanone] | ≤ 100 |
| CCOc1nc(Nc2ccc(C(=O)N3CCOCC3)c(OC)c2)nc2[nH]ccc12 [Example E18, (4-((4-ethoxy-7H-pyrrolo-[2,3-d]-pyrimidin-2-yl)amino)-2-methoxyphenyl)(morpholino)methanone] | ≤ 100 |
| CCOc1nc(Nc2ccc(C(=O)N3CCOC[C@H]3C)cc2OC)nc2[nH]ccc12 [Example E30, (R)-(4-((4-ethoxy-7H-pyrrolo[2,3-d]pyrimidin-2-yl)amino)-3-methoxyphenyl)(3-methylmorpholino)methanone] | ≤ 100 |
| CCOc1nc(Nc2ccc(C(=O)N3CCOCC3)cc2OC)nc2[nH]cc(C)c12 [Example E32, (4-((4-ethoxy-5-methyl-7H-pyrrolo-[2,3-d]pyrimidin-2-yl)amino)-3-methoxyphenyl)(morpholino)methanone] | ≤ 100 |
| COc1cc(C(=O)N2CCN(C)CC2)ccc1Nc1nc(OCC2CC2)c2cc[nH]c2n1 [Example E33, (4-((4-(cyclopropylmethoxy)-7H-pyrrolo-[2,3-d]pyrimidin-2-yl)amino)-3-methoxyphenyl)(4-methylpiperazin-1-yl) methanone] | ≤ 100 |
| COc1cc(C(=O)N2CCOCC2)ccc1Nc1nc(OCC2CC2)c2cc[nH]c2n1 [Example E34, (4-((4-(cyclopropylmethoxy)-7H-pyrrolo-[2,3-d]pyrimidin-2-yl)amino)-3-methoxyphenyl)(morpholino)methanone] | ≤ 100 |
| CCOc1nc(Nc2ccc(C(=O)N3CCOCC3)cc2OC)nc2[nH]cc(C#N)c12 [Example E59, 4-ethoxy-2-((2-methoxy-4-(morpholine-4-carbonyl)phenyl)amino)-7H-pyrrolo[2,3-d]pyrimidine-5-carbonitrile] | ≤ 100 |
